1 compound from US20200010482A1, “INHIBITORS OF BETA SECRETASE” (Janssen Pharmaceutica NV, priority 2017, published 2020) can be followed below.

The structures appear in SMILES notation.

This assay has as its system brain levels of soluble Aβ42, Aβ40, Aβ38, and Aβ37. Description: In vivo Aβ lowering, brain levels of soluble Aβ by MSD electrochemiluminescence. More on the design: species or system mouse. The note with it: 10 mg/kg s.c., 4 h after administration; untreated animals as control set at 100. The text has this:
To determine whether acute administration of an Aβ lowering agent would reduce Aβ levels in vivo, non-transgenic rodents, e.g. mice or rats were used. Animals treated with the Aβ lowering agent were examined and compared to those untreated or treated with vehicle and brain levels of soluble Aβ42, Aβ40, Aβ38, and Aβ37 were quantitated by Meso Scale Discovery's (MSD) electrochemiluminescence detection technology. Treatment periods varied from hours (h) to days and were adjusted based on the results of the Aβ lowering once a time course of onset of effect could be established.
A typical protocol for measuring Aβ lowering in vivo is shown but it is only one of many variations that could be used to optimize the levels of detectable Aβ. […] After 4 h, the animals were sacrificed and Aβ levels were analysed.
Blood was collected by decapitation and exsanguinations in EDTA-treated collection tubes. […] The left hemisphere was stored at −18° C. for quantitative analysis of test compound levels. […]
Mouse brains from non-transgenic animals were resuspended in 8 volumes of 0.4% DEA (diethylamine)/50 mM NaCl containing protease inhibitors (Roche-11873580001 or 04693159001) per gram of tissue, e.g. for 0.158 g brain, add 1.264 ml of 0.4% DEA. […] Nine parts of supernatant were neutralized with 1 part 0.5 M Tris-HCl pH 6.8 and used to quantify Aβ. […]

As to `COc1ncc(C#N)c2c1C[C@]1(c3ccccc3F)N=C(N)SC[C@@H]1C2` (racemic) [Compound 22], the “Aβ40 (% vs Ctrl)_Mean” value is recorded as 39 % vs Ctrl and the “Aβ42 (% vs Ctrl)_Mean” value stood at 32 % vs Ctrl.
